Data as given in ChEMBL document CHEMBL3301472, “MMV Malaria Box HIV and cytotoxicity screening”.

Tests used:
[1] = MMV: MTT Cytotoxicity Assay Day 3 pi, U87-CD4-CCR5 cells, % cell death @ 5mM compound; type: toxicity, cell-based; details: human, u87-cd4-ccr5, 5000 µM
[2] = MMV: MTT Cytotoxicity Assay Day 3 pi, U87-CD4-CXCR4 cells, % cell death @ 5mM compound; type: toxicity, cell-based; details: human, u87-cd4-cxcr4, 5000 µM
[3] = MMV: MTT Cytotoxicity Assay Day 7 pi of Assay #6 (compound washed out Day 1 pi), U87-CD4-CCR5 cells, % cell death @ 5mM compound; type: toxicity, cell-based; details: human, u87-cd4-ccr5, 5000 µM
[4] = MMV: MTT Cytotoxicity Assay Day 7 pi of Assay #7 (compound washed out Day 1 pi), U87-CD4-CXCR4 cells, % cell death @ 5mM compound; type: toxicity, cell-based; details: human, u87-cd4-cxcr4, 5000 µM
[5] = tested on: Human immunodeficiency virus 1; test: MMV: HIV NL4-3 CXCR4-tropic replication-competent virus, NO washout, P24 ELISA Day 7 pi, U87-CD4-CXCR4, % inhibition at 5 mM compound; type: functional; design: dose or concentration left out as unconfirmed; details: Human immunodeficiency virus 1, NL4-3, U87.CD4.CXCR4, 168 h
[6] = MMV: MTT Cytotoxicity Assay Day 7 pi of Assay #10 (NO washout), U87-CD4-CCR5 cells, % cell death @ 5mM compound; type: toxicity, cell-based; details: human, u87-cd4-ccr5, 5000 µM
[7] = MMV: MTT Cytotoxicity Assay Day 7 pi of Assay #11 (NO washout), U87-CD4-CXCR4 cells, % cell death @ 5mM compound; type: toxicity, cell-based; details: human, u87-cd4-cxcr4, 5000 µM
[8] = tested on: Human immunodeficiency virus 1; test: MMV: HIV CCR5-tropic env JRFL pseudovirus assay produces luciferase signal in lieu of replicating viral particles Day 3 pi, U87-CD4-CCR5, % inhibition at 5 mM compound; type: functional; design: dose or concentration left out as unconfirmed; details: Human immunodeficiency virus 1, JR-FL, U87/CD4/CCR5, 72 h
[9] = tested on: Human immunodeficiency virus 1; test: MMV: HIV JRFL CCR5-tropic replication-competent virus, NO washout, P24 ELISA Day 7 pi, U87-CD4-CCR5, % inhibition at 5 mM compound; type: functional; design: dose or concentration left out as unconfirmed; details: Human immunodeficiency virus 1, JR-FL, U87/CD4/CCR5, 168 h
[10] = tested on: Human immunodeficiency virus 1; test: MMV: HIV CXCR4-tropic env NL4-3 pseudovirus assay produces luciferase signal in lieu of replicating viral particles Day 3 pi, U87-CD4-CXCR4, % inhibition at 5 mM compound; type: functional; design: dose or concentration left out as unconfirmed; details: Human immunodeficiency virus 1, NL4-3, U87.CD4.CXCR4, 72 h
[11] = tested on: Human immunodeficiency virus 1; test: MMV: HIV CXCR4-tropic env HxB2 pseudovirus assay produces luciferase signal in lieu of replicating viral particles Day 3 pi, U87-CD4-CXCR4, % inhibition at 5 mM compound; type: functional; design: dose or concentration left out as unconfirmed; details: Human immunodeficiency virus 1, HxB2, U87.CD4.CXCR4, 72 h
[12] = tested on: Human immunodeficiency virus 1; test: MMV: HIV JRFL CCR5-tropic replication-competent virus, virus & compound washed out Day 1 pi, P24 ELISA Day 7 pi, U87-CD4-CCR5, % inhibition at 5 mM compound; type: functional; design: dose or concentration left out as unconfirmed; details: Human immunodeficiency virus 1, JR-FL
[13] = tested on: Human immunodeficiency virus 1; test: MMV: HIV NL4-3 CXCR4-tropic replication-competent virus, virus & compound washed out Day 1 pi, P24 ELISA Day 7 pi, U87-CD4-CXCR4, % inhibition at 5 mM compound; type: functional; design: dose or concentration left out as unconfirmed; details: Human immunodeficiency virus 1, NL4-3, U87.CD4.CXCR4

| SMILES | % Cell Death [1] | % Cell Death [2] | % Cell Death [3] | % Cell Death [4] | inhibition [5] [%] | % Cell Death [6] | % Cell Death [7] | inhibition [8] [%] | inhibition [9] [%] | inhibition [10] [%] | inhibition [11] [%] | inhibition [12] [%] | inhibition [13] [%] |
| --- | --- | --- | --- | --- | --- | --- | --- | --- | --- | --- | --- | --- | --- |
| COc1cccc(Cn2c(Oc3ccccc3)nc3c2c(=O)n(C)c(=O)n3C)c1 | -1 | 15 | 32 | 3 | 9 | 39 | 32 |  |  |  |  |  |  |
| Cc1sc(NC(=O)c2ccco2)c(C(c2cccnc2)N2CCC(Cc3ccccc3)CC2)c1C (centres undefined) | 110 | 88 | 81 | 94 |  | 107 | 104 | 8 |  |  |  |  |  |
| CC1(c2ccccc2)Nc2ccccc2-c2nc3ccccc3n21 (centres undefined) | 10 | 24 | -21 | -19 | 4 | 29 | -43 |  |  |  |  |  |  |
| COc1cccc(C2(C)Nc3ccccc3-c3nc4ccccc4n32)c1 (centres undefined) | -22 | 28 | 37 | 25 |  | 35 | 92 | 9 |  |  |  |  |  |
| CCN1CCN(Cc2ccc(NC(=O)c3cc4ccc5cccnc5c4[nH]3)cc2)CC1 | -23 | 22 | 38 | -2 |  | 9 | 26 |  | 3 |  |  |  |  |
| CCc1c(C)c(=N)c2ccccc2n1C.I | 22 | 100 | 30 | -17 |  | -10 | -5 |  | 8 |  |  |  |  |
| CCN(CC)CCn1c(=N)n(CC(O)c2ccc(Cl)c(Cl)c2)c2ccccc21.Cl (centres undefined) | 18 | 4 | 14 | 20 | 0 | -29 | 52 |  |  | 10 |  |  |  |
| CC(=O)Nc1nnc(SCc2c(C)cc(C(C)(C)C)cc2C)s1 | 14 | 27 | 3 | 10 |  | 3 | 6 | 8 |  |  |  |  |  |
| COc1ccc(C(=O)Nc2nonc2-c2ccc(OC)c(OC)c2)cc1Cl | 64 | 47 | 13 | 53 |  | 100 | 67 | 5 |  |  | 9 | 6 |  |
| Cc1ccc(OCCCCCCNCCO)c(C)c1 | -3 | 28 | 30 | -10 |  | 15 | -10 | -2 |  |  |  |  |  |
| COc1ccc(C(=O)Nc2ccc(Cl)cc2C(=O)Nc2ccncc2)cc1 | 14 | 22 | -7 | -11 |  | 0 | 33 |  | 0 |  |  |  |  |
| O=C(NC1CCN(Cc2ccccc2)CC1)c1cc(-c2cccnc2)nc2ccc(Cl)cc12 | -9 | 34 | 11 | -10 |  | 43 | 40 | 8 |  |  | 8 |  |  |
| O=C1c2ccc3c4c(ccc(c24)C(=O)N1CCCCO)C(=O)N(CCCCO)C3=O | 39 | 27 | 16 | -43 | 2 | 61 | -30 |  |  |  |  |  |  |
| Nc1ccc(-c2nc3cc(Oc4ccc(Oc5ccc6[nH]c(-c7ccc(N)cc7)nc6c5)cc4)ccc3[nH]2)cc1 | 21 | 51 | 12 | 68 |  | 113 | 21 | 4 |  |  |  |  |  |
| CCOC(=O)c1cnc2ccc(OC)cc2c1Nc1ccc(N2CCN(C)CC2)cc1 | -13 | 37 | 5 | 17 |  | 11 | -14 | -2 |  | 6 | -1 |  | 8 |
| COc1ccccc1C(=O)ON=C(N)Cc1cccc2ccccc12 | 23 | 47 | -17 | 42 | 0 | 43 | -11 |  |  | 1 |  |  |  |
| CC(C)CCNCC(O)Cn1c2ccccc2c2ccccc21.Cl (centres undefined) | 6 | 32 | -10 | -6 | 1 | -11 | -6 |  |  |  |  |  |  |
| Cc1cc(C)c2c(c1)OCN(Cc1ccccc1Cl)C2 | -12 | 31 | 20 | -14 |  | -6 | 33 |  | -2 |  |  |  |  |
| COc1cc(OC)c(N(C)C(=O)c2cc3c(s2)-c2ccccc2S(=O)(=O)C3)cc1Cl | 28 | 33 | 22 | -18 | 2 | -2 | -30 |  |  |  |  |  | 7 |
| Cc1ccccc1OCCSc1nc2ccc(NC(=O)c3ccccc3)cc2s1 | 96 | 36 | 31 | 1 |  | 106 | 100 | 10 |  |  |  |  |  |
| CCCc1cc(O)c2c3c(c(=O)oc2c1)CN(C)CC3 | 22 | 44 | -8 | 57 | 6 | 45 | 40 |  |  | 4 |  |  |  |
| COc1ccc(-c2nonc2NC(=O)c2cccc(Cl)c2)cc1OC | 61 | 45 | 13 | 49 |  | 100 | 97 | -2 |  |  |  |  |  |
| c1ccc(CNc2nc(Nc3ccccc3)nc3ccccc23)cc1 | 36 | 53 | -8 | -7 | -2 | 27 | 0 | 6 |  |  | 9 |  |  |
| OC1CCCCC1C1(NC(=S)Nc2ccccc2)CCCCC1 (centres undefined) | 23 | 11 | -5 | 29 | 8 | 4 | -25 |  |  |  |  | 7 |  |
| CCCCCCOC(=O)C1=C(C)NC(=O)NC1c1ccccc1F (centres undefined) | 16 | 29 | -10 | -33 |  | 40 | -34 | -2 |  |  | 3 |  |  |
| Br.CCN(CC)S(=O)(=O)c1ccc(-c2csc(Nc3ccc(C)c(C)c3)n2)cc1 | -17 | 29 | 20 | -19 |  | 26 | 11 | -2 |  |  |  |  | 3 |
| CCCn1c(=N)c(C(=O)NC2CCCCC2)cc2c(=O)n3cccc(C)c3nc21 | 29 | 35 | 0 | -17 | 4 | 43 | -51 |  |  |  |  |  |  |
| Cc1ccc(S(=O)(=O)c2c(COC(=O)c3cccc(C)c3)c(-c3ccccc3)nn2C)cc1 | 27 | 22 | 5 | 22 | 7 | 16 | 31 |  |  |  |  | 5 |  |
| Nc1ccn([C@@H]2O[C@H](CO)[C@@H](O)[C@H]2O)c(=O)n1 [CYTIDINE] | -30 | 28 | -9 | 24 | 6 | 26 | 0 |  |  |  |  |  |  |
